Results reported in patent publication EP2326328B1, “USE OF DIHYDRALAZINE FOR THE TREATMENT OF DISEASES RELATED TO ELEVATED SEMICARBAZIDE SENSITIVE AMINE-OXIDASE (SSAO) ACTIVITY” (Semmelweis Egyetem, priority 2008, dated 2010).
Values joined by “and” are separate entries in the source; they are usually repeats but may differ in a detail not shown here. Equal entries are not always repeated. Where two headings read alike, the source gives them in different places.

Assays:
[1] = blood pressure of treated rats, determined in an invasive way; format: in vivo; conditions: sc 0.1 or 0.01 M solution (0.1 ml/100 g) once daily for 1-5 days, compared to the control group
Experimental: The blood pressure of the animals was determined in an invasive way. […]

[2] = blood pressure and pulse of treated type 2 diabetic patients; format: in vivo, human; conditions: oral 14.5 mg dihydralazine sulphate twice daily; for RRsyst: blood pressure (systolic): before treatment 153
Experimental: After giving their informed consent, patients participating in the study were treated for 56 days taking ½ tablet twice daily of a pharmaceutical composition containing 28.9 mg dihydralazine sulphate (i.e. the ½ tablet contained 14.5 mg dihydralazine sulphate).
To measure the efficacy and monitor the safety of the treatment, the following examinations were carried out before starting the treatment and at the 1., 7., 14., 28. and 56. day of the treatment: • 1. ocular examinations: visual acuity (ETDRS chart), slit-lamp examination, measurement of intraocular pressure with applanation tonometry, fundus biomicroscopy with pupil dilation, digital fundus photography. The grade of macular edema was determined via measuring retinal thickness with optical coherency tomography (OCT). • 2. internal medicine examinations: anamnesis, physical examinations, blood pressure, pulse, urine examination. • 3. laboratory examinations: blood glucose, HbA1c, liver function, kidney function, microalbuminuria, metabolic panel of the blood , lipids, CRP.
In the table the following abbreviations were used: • BMI: body mass index - weight (kg) / height (m^2) • RRsyst: blood pressure (systolic) (Hgmm) • RRdiast: blood pressure (diastolic) (Hgmm) • OCT CST (central subfield thickness): the average thickness of the central 1-mm area of the macula • OCT CPT (center point thickness): the thickness of the center point of the retina; normally that is the thinnest point of the macula Table 4.

[3] = molecular target: T1, SSAO (Rattus norvegicus, UniProt O08590); experiment: serum SSAO activity in vivo in rats after sc treatment; conditions: for Specific activity (pmol/mg/h) Mean / Inhibition (%) / Specific activity / inhibition at 10 µmol/kg / inhibition at 100 µmol/kg: rat serum SSAO; for Specific activity (pmol/mg/h) Mean / Specific activity: control mean 3.373; for inhibition at 10 µmol/kg / inhibition at 100 µmol/kg: rat, sc
T1 construct: from tissue; host or cells: rat serum (blood supernatant) of treated animals
T1 sequence (O08590 28-763 limits assumed): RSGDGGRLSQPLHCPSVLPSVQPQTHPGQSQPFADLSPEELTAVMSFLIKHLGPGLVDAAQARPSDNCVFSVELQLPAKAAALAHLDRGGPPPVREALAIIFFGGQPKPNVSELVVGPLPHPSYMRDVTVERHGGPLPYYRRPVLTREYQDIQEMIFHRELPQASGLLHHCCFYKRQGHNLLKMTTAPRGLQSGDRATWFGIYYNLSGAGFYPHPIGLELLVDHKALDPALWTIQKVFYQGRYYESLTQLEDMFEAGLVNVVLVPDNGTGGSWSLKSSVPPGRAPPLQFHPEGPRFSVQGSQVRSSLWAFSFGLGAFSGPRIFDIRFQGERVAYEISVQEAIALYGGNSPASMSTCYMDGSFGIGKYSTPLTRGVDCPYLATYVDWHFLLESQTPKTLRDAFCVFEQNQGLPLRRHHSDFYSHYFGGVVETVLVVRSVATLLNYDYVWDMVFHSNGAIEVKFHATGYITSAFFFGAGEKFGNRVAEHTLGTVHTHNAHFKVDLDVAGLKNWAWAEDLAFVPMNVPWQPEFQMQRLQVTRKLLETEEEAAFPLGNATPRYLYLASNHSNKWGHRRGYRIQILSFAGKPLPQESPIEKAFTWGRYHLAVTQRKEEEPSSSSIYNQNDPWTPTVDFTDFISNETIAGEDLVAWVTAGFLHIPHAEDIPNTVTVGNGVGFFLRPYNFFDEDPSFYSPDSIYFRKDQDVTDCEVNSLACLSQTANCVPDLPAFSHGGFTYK
Experimental: Rats were treated sc with 0.1 or 0.01 M dihydralazine solution (0.1 ml/100 g) once daily for 1-5 days. On the appropriate day, 2 hours after the treatment the rats were decapitated and their blood was collected without anticoagulant in plastic centrifuge tubes. Blood samples were centrifuged at a low frequency (800 rpm/min) and the supernatant was used for the determination of SSAO activity applying ^14C-benzylamine substrate.
SSAO inhibition expressed in pmol/mg protein/hour units and in % values (mean ± S.D.) in the two treated groups is shown in table 2 and 3.

[4] = sc 10 µmol/kg (1.9 mg/kg) once daily, 24 h, individual animals
[5] = sc 10 µmol/kg (1.9 mg/kg) once daily, 48 h, individual animals
[6] = sc 10 µmol/kg (1.9 mg/kg) once daily, 72 h, individual animals
[7] = sc 10 µmol/kg (1.9 mg/kg) once daily, 96 h, individual animals
[8] = sc 10 µmol/kg (1.9 mg/kg) once daily, 120 h, individual animals
[9] = sc 100 µmol/kg (19 mg/kg) once daily, 24 h, individual animals
[10] = sc 100 µmol/kg (19 mg/kg) once daily, 48 h, individual animals
[11] = sc 100 µmol/kg (19 mg/kg) once daily, 72 h, individual animals
[12] = sc 100 µmol/kg (19 mg/kg) once daily, 96 h, individual animals
[13] = sc 100 µmol/kg (19 mg/kg) once daily, 120 h, individual animals

## NNc1nnc(NN)c2ccccc12 [dihydralazine]
[1]
  blood pressure of the animals: did not cause lowering of the blood pressure
[2]; 1. patient, 14. day, before treatment 60
  pulse: 69 beats/min
[2]; 1. patient, 14. day, before treatment 63
  RRdiast: blood pressure (diastolic): 70 Hgmm
[2]; 1. patient, 14. day
  RRsyst: blood pressure (systolic): 154 Hgmm
[2]; 1. patient, 28. day, before treatment 60
  pulse: 69 beats/min
[2]; 1. patient, 28. day, before treatment 63
  RRdiast: blood pressure (diastolic): 68 Hgmm
[2]; 1. patient, 28. day
  RRsyst: blood pressure (systolic): 152 Hgmm
[2]; 1. patient, 56. day, before treatment 60
  pulse: 60 beats/min
[2]; 1. patient, 56. day, before treatment 63
  RRdiast: blood pressure (diastolic): 67 Hgmm
[2]; 1. patient, 56. day
  RRsyst: blood pressure (systolic): 161 Hgmm
[2]; 2. patient, 14. day, before treatment 76
  RRdiast: blood pressure (diastolic): 65 Hgmm
[2]; 2. patient, 14. day, before treatment 79
  pulse: 89 beats/min
[2]; 2. patient, 14. day
  RRsyst: blood pressure (systolic): 150 Hgmm
[2]; 2. patient, 28. day, before treatment 76
  RRdiast: blood pressure (diastolic): 74 Hgmm
[2]; 2. patient, 28. day, before treatment 79
  pulse: 93 beats/min
[2]; 2. patient, 28. day
  RRsyst: blood pressure (systolic): 158 Hgmm
[2]; 2. patient, 56. day, before treatment 76
  RRdiast: blood pressure (diastolic): 64 Hgmm
[2]; 2. patient, 56. day, before treatment 79
  pulse: 77 beats/min
[2]; 2. patient, 56. day
  RRsyst: blood pressure (systolic): 126 Hgmm
[2]; type 2 diabetic patients
  blood pressure: did not cause significant change of blood pressure
[3]; animal experiments, low dose without appreciable blood pressure lowering effect
  SSAO inhibition: significant SSAO inhibition
[3]; sc 10 µmol/kg (1.9 mg/kg) once daily, 24 h, group mean
  Specific activity (pmol/mg/h) Mean: 1.580 pmol/mg/h
[3]; [4]
  Inhibition (%): 37% and 57%
  Specific activity: 2.11 pmol/mg/h and 1.19 pmol/mg/h and 1.44 pmol/mg/h
[3]; sc 10 µmol/kg (1.9 mg/kg) once daily, 48 h, group mean
  Specific activity (pmol/mg/h) Mean: 1.595 pmol/mg/h
[3]; [5]
  Inhibition (%): 52% and 55%
  Specific activity: 1.66 pmol/mg/h and 1.61 pmol/mg/h and 1.52 pmol/mg/h
[3]; sc 10 µmol/kg (1.9 mg/kg) once daily, 72 h, group mean
  Specific activity (pmol/mg/h) Mean: 1.244 pmol/mg/h
[3]; [6]
  Inhibition (%): 69%
  Specific activity: 1.25 pmol/mg/h and 1.06 pmol/mg/h and 1.43 pmol/mg/h
[3]; sc 10 µmol/kg (1.9 mg/kg) once daily, 96 h, group mean
  Specific activity (pmol/mg/h) Mean: 1.344 pmol/mg/h
[3]; [7]
  Inhibition (%): 71% and 42%
  Specific activity: 0.97 pmol/mg/h and 1.94 pmol/mg/h and 1.12 pmol/mg/h
[3]; sc 10 µmol/kg (1.9 mg/kg) once daily, 120 h, group mean
  Specific activity (pmol/mg/h) Mean: 1.425 pmol/mg/h
[3]; [8]
  Inhibition (%): 77% and 14% and 82%
  Specific activity: 0.78 pmol/mg/h and 2.90 pmol/mg/h and 0.59 pmol/mg/h
[3]; sc 100 µmol/kg (19 mg/kg) once daily, 24 h, group mean
  Specific activity (pmol/mg/h) Mean: 1.094 pmol/mg/h
[3]; [9]
  Inhibition (%): 69%
  Specific activity: 1.13 pmol/mg/h and 1.05 pmol/mg/h and 1.11 pmol/mg/h
[3]; sc 100 µmol/kg (19 mg/kg) once daily, 48 h, group mean
  Specific activity (pmol/mg/h) Mean: 1.481 pmol/mg/h
[3]; [10]
  Inhibition (%): 47% and 61%
  Specific activity: 1.33 pmol/mg/h and 1.80 pmol/mg/h and 1.31 pmol/mg/h
[3]; sc 100 µmol/kg (19 mg/kg) once daily, 72 h, group mean
  Specific activity (pmol/mg/h) Mean: 1.177 pmol/mg/h
[3]; [11]
  Inhibition (%): 66%
  Specific activity: 1.11 pmol/mg/h and 1.26 pmol/mg/h and 1.15 pmol/mg/h
[3]; sc 100 µmol/kg (19 mg/kg) once daily, 96 h, group mean
  Specific activity (pmol/mg/h) Mean: 0.859 pmol/mg/h
[3]; [12]
  Inhibition (%): 73%
  Specific activity: 0.55 pmol/mg/h and 1.12 pmol/mg/h and 0.91 pmol/mg/h
[3]; sc 100 µmol/kg (19 mg/kg) once daily, 120 h, group mean
  Specific activity (pmol/mg/h) Mean: 0.730 pmol/mg/h
[3]; [13]
  Inhibition (%): 62% and 90% and 83%
  Specific activity: 1.29 pmol/mg/h and 0.34 pmol/mg/h and 0.56 pmol/mg/h
[3]; sc 10 µmol/kg (1.9 mg/kg) once daily, 24 h, group mean, read-out: Inhibition (%) Mean
  inhibition at 10 µmol/kg: 53%
[3]; sc 10 µmol/kg (1.9 mg/kg) once daily, 48 h, group mean, read-out: Inhibition (%) Mean
  inhibition at 10 µmol/kg: 53%
[3]; sc 10 µmol/kg (1.9 mg/kg) once daily, 48 h, individual animals, read-out: Inhibition (%)
  inhibition at 10 µmol/kg: 51%
[3]; sc 10 µmol/kg (1.9 mg/kg) once daily, 72 h, group mean, read-out: Inhibition (%) Mean
  inhibition at 10 µmol/kg: 63%
[3]; sc 10 µmol/kg (1.9 mg/kg) once daily, 72 h, individual animals, read-out: Inhibition (%)
  inhibition at 10 µmol/kg: 63%
[3]; sc 10 µmol/kg (1.9 mg/kg) once daily, 96 h, group mean, read-out: Inhibition (%) Mean
  inhibition at 10 µmol/kg: 60%
[3]; sc 10 µmol/kg (1.9 mg/kg) once daily, 120 h, group mean, read-out: Inhibition (%) Mean
  inhibition at 10 µmol/kg: 58%
[3]; sc 100 µmol/kg (19 mg/kg) once daily, 24 h, group mean, read-out: Inhibition (%) Mean
  inhibition at 100 µmol/kg: 68%
[3]; sc 100 µmol/kg (19 mg/kg) once daily, 24 h, individual animals, read-out: Inhibition (%)
  inhibition at 100 µmol/kg: 67%
[3]; sc 100 µmol/kg (19 mg/kg) once daily, 48 h, group mean, read-out: Inhibition (%) Mean
  inhibition at 100 µmol/kg: 56%
[3]; sc 100 µmol/kg (19 mg/kg) once daily, 48 h, individual animals, read-out: Inhibition (%)
  inhibition at 100 µmol/kg: 60%
[3]; sc 100 µmol/kg (19 mg/kg) once daily, 72 h, group mean, read-out: Inhibition (%) Mean
  inhibition at 100 µmol/kg: 65%
[3]; sc 100 µmol/kg (19 mg/kg) once daily, 72 h, individual animals, read-out: Inhibition (%)
  inhibition at 100 µmol/kg: 67%
[3]; sc 100 µmol/kg (19 mg/kg) once daily, 96 h, group mean, read-out: Inhibition (%) Mean
  inhibition at 100 µmol/kg: 75%
[3]; sc 100 µmol/kg (19 mg/kg) once daily, 96 h, individual animals, read-out: Inhibition (%)
  inhibition at 100 µmol/kg: 84%
[3]; sc 100 µmol/kg (19 mg/kg) once daily, 120 h, group mean, read-out: Inhibition (%) Mean
  inhibition at 100 µmol/kg: 78%
